Results from the supplement of paper PMC10307832.

Columns and labels:
Test in all cases: relative viability (nuclei count vs DMSO), 5 days (fraction); higher = more cells survive
[1] = compound: CC1=C(N=C(N=C1N)[C@H](CC(=O)N)NC[C@@H](C(=O)N)N)C(=O)N[C@@H]([C@H](C2=CN=CN2)OC3C(C(C(C(O3)CO)O)O)OC4C(C(C(C(O4)CO)O)OC(=O)N)O)C(=O)N[C@H](C)[C@H]([C@H](C)C(=O)N[C@@H]([C@@H](C)O)C(=O)NCCC5=NC(=CS5)C6=NC(=CS6)C(=O)NCCC[S+](C)C)O [Bleomycin] + CC(C)C[C@H](NC(=O)[C@H](Cc1ccccc1)NC(=O)c1cnccn1)B(O)O [Bortezomib] (partner 0.002 µM); conditions: main component drawn
Method in brief: (§1)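 A single step with final 0.05% Triton X-100, 1% formaldehyde and 1 ug/ml Hoechst fixed the cells and stained nuclei 5 days after treatment. Lung cancer cell lines in 1536-well plates had been treated by pin tool the day after seeding with one drug alone or a fixed anchor-drug dose plus five library-drug doses (not always all listed) in √10 steps, and nuclei were counted on 4× images. Relative viability is the ratio of nuclei in treated wells to nuclei in vehicle wells, taken as the median of duplicate plates.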

[2] = compound: CC1=C(N=C(N=C1N)[C@H](CC(=O)N)NC[C@@H](C(=O)N)N)C(=O)N[C@@H]([C@H](C2=CN=CN2)OC3C(C(C(C(O3)CO)O)O)OC4C(C(C(C(O4)CO)O)OC(=O)N)O)C(=O)N[C@H](C)[C@H]([C@H](C)C(=O)N[C@@H]([C@@H](C)O)C(=O)NCCC5=NC(=CS5)C6=NC(=CS6)C(=O)NCCC[S+](C)C)O [Bleomycin] + C[C@@H](Oc1cc(-c2cnn(C3CCNCC3)c2)cnc1N)c1c(Cl)ccc(F)c1Cl [Crizotinib] (partner 1 µM); conditions: main component drawn
Method in brief: as §1

[3] = compound: COc1cc([C@@H]2c3cc4c(cc3[C@@H](O[C@@H]3O[C@@H]5CO[C@@H](C)O[C@H]5[C@H](O)[C@H]3O)[C@H]3COC(=O)[C@H]23)OCO4)cc(OC)c1O [Etoposide] + CC(C)C[C@H](NC(=O)[C@H](Cc1ccccc1)NC(=O)c1cnccn1)B(O)O [Bortezomib] (partner 0.002 µM)
Method in brief: as §1

[4] = compound: COc1cc([C@@H]2c3cc4c(cc3[C@@H](O[C@@H]3O[C@@H]5CO[C@@H](C)O[C@H]5[C@H](O)[C@H]3O)[C@H]3COC(=O)[C@H]23)OCO4)cc(OC)c1O [Etoposide] + NC(=O)Nc1cc(-c2cccc(F)c2)sc1C(=O)N[C@H]1CCCNC1 [AZD7762] (partner 0.2 µM)
Method in brief: as §1

| Cell Line | relative viability ([1]; first compound 0.01 µM) | relative viability ([1]; first compound 0.03162 µM) | relative viability ([1]; first compound 0.1 µM) | relative viability ([1]; first compound 0.3162 µM) | relative viability ([1]; first compound 1 µM) | relative viability ([2]; first compound 0.01 µM) | relative viability ([2]; first compound 0.03162 µM) | relative viability ([2]; first compound 0.1 µM) | relative viability ([2]; first compound 0.3162 µM) | relative viability ([2]; first compound 1 µM) | relative viability ([3]; first compound 0.01 µM) | relative viability ([3]; first compound 0.03162 µM) | relative viability ([3]; first compound 0.1 µM) | relative viability ([3]; first compound 0.3162 µM) | relative viability ([3]; first compound 1 µM) | relative viability ([4]; first compound 0.01 µM) | relative viability ([4]; first compound 0.03162 µM) | relative viability ([4]; first compound 0.1 µM) | relative viability ([4]; first compound 0.3162 µM) | relative viability ([4]; first compound 1 µM) |
| --- | --- | --- | --- | --- | --- | --- | --- | --- | --- | --- | --- | --- | --- | --- | --- | --- | --- | --- | --- | --- |
| NCI-H1355 | 1.13 | 1.24 | 1.03 | 0.376 | 0.262 | 0.948 | 1.03 | 0.926 | 0.538 | 0.298 | 1.15 | 1.35 | 0.671 | 1.13 | 0.412 | 0.746 | 0.862 | 0.501 | 0.586 | 0.305 |
| H3255 | 0.664 | 0.925 | 0.666 | 0.283 | 0.244 | 0.61 | 0.742 | 0.55 | 0.378 | 0.287 | 0.831 | 0.777 | 0.516 | 0.591 | 0.383 | 0.949 | 0.95 | 0.726 | 0.66 | 0.668 |
| NCI-H1993 | 1.2 | 1.06 | 0.95 | 0.539 | 0.548 | 0.629 | 0.712 | 0.693 | 0.678 | 0.527 | 0.954 | 1.12 | 0.631 | 0.919 | 0.473 |  | 0.838 | 0.474 | 0.759 | 0.596 |
| NCI-H1734 | 0.732 | 0.664 | 0.725 | 0.239 | 0.226 | 0.581 | 0.545 | 0.554 | 0.219 | 0.198 | 0.894 | 0.878 | 0.572 | 0.624 | 0.308 | 0.561 | 0.538 | 0.333 | 0.306 | 0.19 |
| HOP-62 | 0.359 | 0.189 | 0.0755 | 0.113 | 0.072 | 0.531 | 0.477 | 0.325 | 0.144 | 0.106 | 0.644 | 0.901 | 0.298 | 0.412 | 0.328 | 0.486 | 0.634 | 0.284 | 0.329 | 0.24 |
| LOU-NH91 | 0.493 | 0.439 | 0.355 | 0.335 | 0.348 | 0.593 | 0.537 | 0.531 | 0.39 | 0.331 | 0.563 | 0.502 | 0.498 | 0.435 | 0.375 | 0.784 | 0.836 | 0.67 | 0.656 | 0.482 |
| ChaGo-K-1 |  | 1.01 | 0.768 | 0.393 | 0.306 |  | 0.999 | 0.754 | 0.385 | 0.333 | 1.16 | 0.94 | 0.679 | 0.337 | 0.282 | 0.859 | 0.863 | 0.863 | 0.69 | 0.302 |
| NCI-H23 | 0.424 | 0.374 | 0.276 | 0.165 | 0.2 | 0.249 | 0.231 | 0.251 | 0.162 | 0.153 | 0.919 | 1.15 | 0.516 | 0.317 | 0.215 | 0.246 | 0.307 | 0.187 | 0.195 | 0.172 |
| PC-3 [JPC-3] | 0.748 | 0.926 | 0.791 | 0.446 | 0.448 | 0.811 | 1 | 0.872 | 0.689 | 0.485 | 0.795 | 0.756 | 0.93 | 0.775 | 0.67 | 0.782 | 0.92 | 0.604 | 0.785 | 0.73 |
| NCI-H1437 | 0.519 | 0.44 | 0.452 | 0.121 | 0.303 | 0.803 | 0.811 | 0.736 | 0.476 | 0.382 | 0.378 | 0.547 | 0.492 | 0.243 | 0.273 | 1.03 | 1.11 | 1.14 | 1.07 | 0.722 |
| NCI-H1666 | 0.622 | 0.427 | 0.434 | 0.31 | 0.261 | 0.717 | 0.57 | 0.469 | 0.339 | 0.325 | 0.949 | 0.71 | 0.528 | 0.294 | 0.242 | 0.852 | 0.99 | 0.814 | 0.583 | 0.532 |
| NCI-H1651 | 0.91 | 0.898 | 0.664 | 0.457 | 0.306 | 0.787 | 0.772 | 0.754 | 0.448 | 0.358 | 0.914 | 0.979 | 0.875 | 0.532 | 0.181 | 0.476 | 0.508 | 0.287 | 0.274 | 0.186 |
| NCI-H1755 | 0.854 | 0.957 | 0.827 | 0.384 | 0.659 | 0.771 | 0.841 | 0.827 | 0.593 | 0.567 | 0.995 | 1.02 | 0.887 | 0.9 | 0.969 | 0.45 | 0.487 | 0.407 | 0.403 | 0.52 |
| NCI-H727 | 0.796 | 0.853 | 0.775 | 0.303 | 0.37 | 0.763 | 0.731 | 0.634 | 0.411 | 0.489 | 0.764 | 1.07 | 0.536 | 0.857 | 0.659 | 0.647 | 0.582 | 0.405 | 0.527 | 0.579 |
| HARA | 1 | 1.09 | 1.04 | 0.514 | 0.239 | 0.938 | 0.952 | 0.974 | 0.54 | 0.36 | 1.04 | 1.29 | 1.11 | 0.995 | 0.235 | 0.436 | 0.347 | 0.236 | 0.301 | 0.291 |
| NCI-H647 | 0.39 | 0.299 | 0.223 | 0.118 | 0.0632 | 0.313 | 0.326 | 0.213 | 0.135 | 0.109 | 0.807 | 1.4 | 0.72 | 0.298 | 0.147 | 0.417 | 0.323 | 0.307 | 0.165 | 0.0849 |
| NCI-H2347 | 0.915 | 1.05 | 0.889 | 0.7 | 0.476 | 0.707 | 0.677 | 0.744 | 0.362 | 0.515 | 1.06 | 1.32 | 0.716 | 0.572 | 0.515 | 0.685 | 0.828 | 0.311 | 0.374 | 0.367 |
| LCLC-97TM1 | 0.173 | 0.17 | 0.0959 | 0.077 | 0.0823 | 0.18 | 0.219 | 0.14 | 0.109 | 0.0966 | 0.865 | 0.329 | 0.485 | 0.132 | 0.0671 | 0.226 | 0.323 | 0.173 | 0.15 | 0.099 |
| EPLC-272H | 0.863 | 0.883 | 0.718 | 0.174 | 0.158 | 0.776 | 0.88 | 0.655 | 0.358 | 0.152 | 0.89 | 1.15 | 0.669 | 0.958 | 0.526 | 0.272 | 0.269 | 0.183 | 0.182 | 0.0802 |
| NCI-H1915 | 0.645 | 0.823 | 0.384 | 0.179 | 0.136 | 0.661 | 0.665 | 0.45 | 0.337 | 0.183 | 0.963 | 0.969 | 0.992 | 0.906 | 0.516 | 0.66 | 0.777 | 0.697 | 0.648 | 0.527 |
| NCI-H3122 | 0.999 | 0.976 | 0.957 | 0.698 | 0.428 | 0.253 | 0.271 | 0.305 | 0.214 | 0.253 | 1.04 | 0.986 | 1.04 | 0.816 | 0.47 | 0.998 | 0.998 | 0.834 | 0.607 | 0.181 |
| NCI-H441 |  | 0.886 | 0.458 | 0.226 | 0.211 |  | 0.534 | 0.469 | 0.363 | 0.398 | 0.457 | 0.469 | 0.447 | 0.286 | 0.177 | 1.31 | 0.966 | 1.1 | 0.512 | 0.4 |
| PC-14 | 0.541 | 0.253 | 0.155 | 0.0725 | 0.0825 | 0.578 | 0.516 | 0.259 | 0.105 | 0.0849 | 0.9 | 1.08 | 0.918 | 0.687 | 0.666 | 0.338 | 0.396 | 0.317 | 0.307 | 0.17 |
| CAL-12T |  | 0.87 | 0.692 | 0.293 | 0.28 | 0.356 | 0.405 | 0.25 | 0.15 | 0.192 | 1.07 | 1.08 | 0.846 | 0.648 | 0.385 | 0.567 | 0.792 | 0.613 | 0.477 | 0.409 |
